Results published in US11622991B2, “Protocol for treatment of lupus nephritis” (Aurinia Pharmaceuticals Inc., priority 2017, dated 2023).

System: lupus nephritis
Assay: Predictability of week 48 partial remission from early reduction in UPCR (Tables 4-8)
Type: in vivo, human
Protocol: In the study reported in Example 1, the predictability of outcomes based on markers at early time points were determined.
This is important because it is undesirable to subject a patient to unnecessary treatment, even if the treatment is relatively safe.
PR is defined as at least 50% reduction in proteinuria (i.e. UPCR).
Sensitivity is defined as the probability that a subject showing PR at 48 weeks would have shown a favorable result with regard to the marker at the designated early time point. In the tables below, this is the ratio of the number of subjects with favorable marker results (early drop or normalization) to the total subjects with 48 week PR.
Specificity is defined as the probability that a subject not showing PR at 48 weeks would have shown an unfavorable result with regard to the marker at the designated early time point. In the tables below, this is the ratio of the number of subjects with unfavorable marker results (no early drop or no normalization) to the total subjects with no 48 week PR.
Positive predictive value is defined as the probability that a subject showing a favorable result with respect to the marker at an earlier time point would show PR at 48 weeks. In the tables below, this is the ratio of the number of subjects with favorable marker results who have 48 week PR to those with favorable marker results (early reduction or yes column).
Negative predictive value is defined as the probability that a subject showing an unfavorable result with respect to the marker at an earlier time point would not show PR at 48 weeks. In the tables below, this is the ratio of the number of subjects with unfavorable marker results who have no PR at 48 weeks to the total subjects with unfavorable marker results (no early reduction or no column).

[1] = 25% reduction in UPCR, Week 26, 23.7 mg BID
[2] = 25% reduction in UPCR, Week 26, 39.5 mg BID
[3] = 25% reduction in UPCR, Week 36, 23.7 mg BID
[4] = 25% reduction in UPCR, Week 36, 39.5 mg BID
[5] = 25% reduction in UPCR, Week 48, 23.7 mg BID
[6] = 25% reduction in UPCR, Week 48, 39.5 mg BID
[7] = early 30% reduction in UPCR, week 2, 39.5 mg BID
[8] = early 30% reduction in UPCR, week 6, 23.7 mg BID
[9] = early 30% reduction in UPCR, week 8, 23.7 mg BID
[10] = early 30% reduction in UPCR, week 8, 39.5 mg BID
[11] = early 30% reduction in UPCR, week 12, 39.5 mg BID
[12] = early 30% reduction in UPCR, week 16, 23.7 mg BID
[13] = early 30% reduction in UPCR, week 16, 39.5 mg BID
[14] = early 30% reduction in UPCR, week 20, 23.7 mg BID
[15] = early 30% reduction in UPCR, week 24, 23.7 mg BID
[16] = early 30% reduction in UPCR, week 24, 39.5 mg BID
[17] = early 30% reduction in UPCR, week 26, 23.7 mg BID
[18] = early 30% reduction in UPCR, week 26, 39.5 mg BID
[19] = early 30% reduction in UPCR, week 36, 23.7 mg BID
[20] = early 30% reduction in UPCR, week 36, 39.5 mg BID
[21] = early 30% reduction in UPCR, week 48, 23.7 mg BID
[22] = early 30% reduction in UPCR, week 48, 39.5 mg BID
[23] = early 35% reduction in UPCR, week 2, 39.5 mg BID
[24] = early 35% reduction in UPCR, week 6, 23.7 mg BID
[25] = early 35% reduction in UPCR, week 8, 23.7 mg BID
[26] = early 35% reduction in UPCR, week 8, 39.5 mg BID
[27] = early 35% reduction in UPCR, week 12, 23.7 mg BID
[28] = early 35% reduction in UPCR, week 12, 39.5 mg BID
[29] = early 35% reduction in UPCR, week 16, 23.7 mg BID
[30] = early 35% reduction in UPCR, week 16, 39.5 mg BID
[31] = early 35% reduction in UPCR, week 20, 23.7 mg BID
[32] = early 35% reduction in UPCR, week 24, 23.7 mg BID
[33] = early 35% reduction in UPCR, week 24, 39.5 mg BID
[34] = early 35% reduction in UPCR, week 26, 23.7 mg BID
[35] = early 35% reduction in UPCR, week 26, 39.5 mg BID
[36] = early 35% reduction in UPCR, week 36, 23.7 mg BID
[37] = early 35% reduction in UPCR, week 36, 39.5 mg BID
[38] = early 35% reduction in UPCR, week 48, 23.7 mg BID

## C=C/C=C/C[C@@H](C)[C@@H](O)[C@H]1C(=O)N[C@@H](CC)C(=O)N(C)CC(=O)N(C)[C@@H](CC(C)C)C(=O)N[C@@H](C(C)C)C(=O)N(C)[C@@H](CC(C)C)C(=O)N[C@@H](C)C(=O)N[C@H](C)C(=O)N(C)[C@@H](CC(C)C)C(=O)N(C)[C@@H](CC(C)C)C(=O)N(C)[C@@H](C(C)C)C(=O)N1C [voclosporin]
[1]
  No Week 48 Partial Remission Early Drop: 8
  No Week 48 Partial Remission No Early Drop: 4
[2]
  No Week 48 Partial Remission No Early Drop: 4
  Week 48 Partial Remission No Early Drop: 1
[3]
  Early Reduction No: 4
  No Week 48 Partial Remission Early Drop: 10
  No Week 48 Partial Remission No Early Drop: 3
  Week 48 Partial Remission No Early Drop: 1
[4]
  Early Reduction No: 8
  Week 48 Partial Remission No Early Drop: 2
[5]
  Early Reduction No: 2
  No Week 48 Partial Remission Early Drop: 9
  No Week 48 Partial Remission No Early Drop: 2
[6]
  Early Reduction No: 9
  No Week 48 Partial Remission Early Drop: 7
  No Week 48 Partial Remission No Early Drop: 9
[7]
  No Week 48 Partial Remission Early Drop: 11
  Week 48 Partial Remission Early Drop: 31
  Week 48 Partial Remission No Early Drop: 29
Early 30% reduction in UPCR, week 4, 23.7 mg BID
  No Week 48 Partial Remission Early Drop: 11
Early 30% reduction in UPCR, week 4, 39.5 mg BID
  Week 48 Partial Remission No Early Drop: 16
[8]
  No Week 48 Partial Remission Early Drop: 10
  No Week 48 Partial Remission No Early Drop: 8
  Week 48 Partial Remission No Early Drop: 10
Early 30% reduction in UPCR, week 6, 39.5 mg BID
  Week 48 Partial Remission No Early Drop: 16
[9]
  No Week 48 Partial Remission Early Drop: 10
  No Week 48 Partial Remission No Early Drop: 9
  Week 48 Partial Remission No Early Drop: 7
[10]
  Early Reduction No: 11
  No Week 48 Partial Remission No Early Drop: 4
  Week 48 Partial Remission No Early Drop: 7
Early 30% reduction in UPCR, week 12, 23.7 mg BID
  No Week 48 Partial Remission No Early Drop: 7
[11]
  Early Reduction No: 11
  No Week 48 Partial Remission No Early Drop: 4
  Week 48 Partial Remission No Early Drop: 7
[12]
  Early Reduction No: 10
  No Week 48 Partial Remission Early Drop: 11
  No Week 48 Partial Remission No Early Drop: 7
  Week 48 Partial Remission No Early Drop: 3
[13]
  No Week 48 Partial Remission No Early Drop: 7
  Week 48 Partial Remission No Early Drop: 8
[14]
  Early Reduction No: 10
  No Week 48 Partial Remission Early Drop: 9
  No Week 48 Partial Remission No Early Drop: 7
  Week 48 Partial Remission No Early Drop: 3
Early 30% reduction in UPCR, week 20, 39.5 mg BID
  Early Reduction No: 10
[15]
  Early Reduction No: 4
  No Week 48 Partial Remission Early Drop: 11
  No Week 48 Partial Remission No Early Drop: 3
  Week 48 Partial Remission No Early Drop: 1
[16]
  No Week 48 Partial Remission No Early Drop: 7
  Week 48 Partial Remission No Early Drop: 9
[17]
  No Week 48 Partial Remission Early Drop: 7
  Week 48 Partial Remission No Early Drop: 1
[18]
  Early Reduction No: 8
  No Week 48 Partial Remission Early Drop: 11
  Week 48 Partial Remission No Early Drop: 3
[19]
  Early Reduction No: 4
  No Week 48 Partial Remission Early Drop: 10
  No Week 48 Partial Remission No Early Drop: 3
  Week 48 Partial Remission No Early Drop: 1
[20]
  Early Reduction No: 9
  No Week 48 Partial Remission Early Drop: 11
  No Week 48 Partial Remission No Early Drop: 7
  Week 48 Partial Remission No Early Drop: 2
[21]
  Early Reduction No: 3
  No Week 48 Partial Remission Early Drop: 8
  No Week 48 Partial Remission No Early Drop: 3
[22]
  Early Reduction No: 11
  No Week 48 Partial Remission No Early Drop: 11
[23]
  Early Reduction Yes: 39
  No Week 48 Partial Remission Early Drop: 11
  Week 48 Partial Remission No Early Drop: 32
Early 35% reduction in UPCR, week 4, 23.7 mg BID
  No Week 48 Partial Remission Early Drop: 11
Early 35% reduction in UPCR, week 4, 39.5 mg BID
  No Week 48 Partial Remission No Early Drop: 8
[24]
  No Week 48 Partial Remission Early Drop: 9
  No Week 48 Partial Remission No Early Drop: 9
Early 35% reduction in UPCR, week 6, 39.5 mg BID
  Week 48 Partial Remission No Early Drop: 16
[25]
  No Week 48 Partial Remission Early Drop: 9
  No Week 48 Partial Remission No Early Drop: 10
  Week 48 Partial Remission No Early Drop: 8
[26]
  No Week 48 Partial Remission No Early Drop: 4
  Week 48 Partial Remission No Early Drop: 8
[27]
  No Week 48 Partial Remission Early Drop: 10
  No Week 48 Partial Remission No Early Drop: 9
  Week 48 Partial Remission No Early Drop: 7
[28]
  No Week 48 Partial Remission No Early Drop: 4
  Week 48 Partial Remission No Early Drop: 10
[29]
  Early Reduction No: 11
  No Week 48 Partial Remission Early Drop: 11
  No Week 48 Partial Remission No Early Drop: 7
  Week 48 Partial Remission No Early Drop: 4
[30]
  No Week 48 Partial Remission No Early Drop: 7
  Week 48 Partial Remission No Early Drop: 8
[31]
  Early Reduction No: 11
  No Week 48 Partial Remission Early Drop: 8
  No Week 48 Partial Remission No Early Drop: 8
  Week 48 Partial Remission No Early Drop: 3
Early 35% reduction in UPCR, week 20, 39.5 mg BID
  Early Reduction No: 11
[32]
  Early Reduction No: 7
  No Week 48 Partial Remission Early Drop: 8
  Week 48 Partial Remission No Early Drop: 1
[33]
  No Week 48 Partial Remission No Early Drop: 7
  Week 48 Partial Remission No Early Drop: 9
[34]
  Early Reduction No: 8
  No Week 48 Partial Remission Early Drop: 7
  Week 48 Partial Remission No Early Drop: 3
[35]
  Early Reduction No: 11
  No Week 48 Partial Remission Early Drop: 11
[36]
  No Week 48 Partial Remission Early Drop: 9
  No Week 48 Partial Remission No Early Drop: 4
  Week 48 Partial Remission No Early Drop: 1
[37]
  Early Reduction No: 9
  No Week 48 Partial Remission Early Drop: 11
  No Week 48 Partial Remission No Early Drop: 7
  Week 48 Partial Remission No Early Drop: 2
[38]
  Early Reduction No: 4
  No Week 48 Partial Remission Early Drop: 7
  No Week 48 Partial Remission No Early Drop: 4
Early 35% reduction in UPCR, week 48, 39.5 mg BID
  No Week 48 Partial Remission Early Drop: 4
